Experimental data: article PMC10287555, “Camonsertib in DNA damage response-deficient advanced solid tumors: phase 1 trial results” (Nature Medicine, 2023)

Experiment: Treatment-related adverse events (TRAEs), TRESR
Assay type: in vivo, human
Protocol: Tolerability and safety of camonsertib was evaluated by assessment of AEs, TEAEs, serious adverse events (SAEs), DLTs, concomitant medications and procedures, physical examinations, vital sign measurements, clinical safety laboratory evaluations (hematology, chemistry and urinalysis), ECOG performance status scores and electrocardiograms.
All safety and efficacy endpoints were summarized with descriptive statistics. Safety data were summarized using the safety population, which consisted of all patients who received at least one dose of RP-3500. The DLT rate was based on the DLT-evaluable population, which included those patients in dose-escalation cohorts (M1a and M1b only) receiving ≥80% of planned doses of camonsertib, who completed all required safety evaluations and were observed through the end of cycle 1 or patients who experienced a DLT. Due to the different number of dose levels expected and the exploratory nature of the phase 1 study, anti-tumor activity parameters were primarily based on patients who received ≥1 dose of RP-3500 and had ≥1 post-baseline tumor assessment by RECIST 1.1 and/or GCIG CA-125 or PCWG3 PSA criteria, with an initial dose level of >100 mg d^−1 (dose level predicted to achieve efficacious exposure), as defined in the statistical analysis plan. Additional subgroups based on tumor types or genotypes of interest were based on this efficacy analysis set. […] Patients were, therefore, enrolled in the study and endpoints assessed regardless of sex, gender and race. No formal statistical tests were performed in this study. However, nominal P values (two-sided) were provided for the hypothesis-generating purpose of selected exploratory endpoints, without adjusting for multiplicity. A log-rank test was used in between-group comparisons for the time-to-event endpoints (PFS and DOT), and Fisher’s exact test was used in between-group comparisons for the binary endpoints (CBR, MR, etc.).

[1] = 3/4 schedule (n = 95), all grades
[2] = 5/2 schedule (n = 25), all grades

C[C@@H]1COCCN1c1cc([C@]2(O)C[C@H]3CC[C@@H](C2)O3)c2cnn(-c3cc[nH]n3)c2n1 [camonsertib]
Patients who discontinued due to treatment-related grade 3 anemia (1/120, after four cycles): 0.8%
Anemia, all grades (3/4 schedule): 64%
Anemia, grade 3 (3/4 schedule): 26%
Fatigue TRAE, grade 3 (3/4 schedule (n = 95)): 2.1%
Fatigue TRAE, overall (3/4 schedule (n = 95)): 27.4%
Neutropenia TRAE, grade 3 (3/4 schedule (n = 95)): 10.5%
Neutropenia TRAE, grade 4 (3/4 schedule (n = 95)): 3.2%
Neutropenia TRAE, overall (3/4 schedule (n = 95)): 26.3%
Thrombocytopenia TRAE, grade 3 (3/4 schedule (n = 95)): 6.3%
Thrombocytopenia TRAE, grade 4 (3/4 schedule (n = 95)): 1.1%
Thrombocytopenia TRAE, overall (3/4 schedule (n = 95)): 23.2%
Any TRAE [1]: 82 (86.3) n (%)
TRAE: Anemia [1]: 61 (64.2) n (%)
TRAE: Decreased appetite [1]: 14 (14.7) n (%)
TRAE: Diarrhea [1]: 13 (13.7) n (%)
TRAE: Dysgeusia [1]: 5 (5.3) n (%)
TRAE: Dyspnea [1]: 6 (6.3) n (%)
TRAE: Fatigue [1]: 26 (27.4) n (%)
TRAE: Nausea [1]: 23 (24.2) n (%)
TRAE: Neutrophil count decreased/neutropenia [1]: 25 (26.3) n (%)
TRAE: Platelet count decreased/thrombocytopenia [1]: 22 (23.2) n (%)
TRAE: Vomiting [1]: 9 (9.5) n (%)
TRAE: White blood cell count decreased [1]: 11 (11.6) n (%)
Any TRAE (3/4 schedule (n = 95), grade 3): 30 (31.6) n (%)
TRAE: Anemia (3/4 schedule (n = 95), grade 3): 25 (26.3) n (%)
TRAE: Decreased appetite (3/4 schedule (n = 95), grade 3): 0 n (%)
TRAE: Diarrhea (3/4 schedule (n = 95), grade 3): 0 n (%)
TRAE: Dysgeusia (3/4 schedule (n = 95), grade 3): 0 n (%)
TRAE: Dyspnea (3/4 schedule (n = 95), grade 3): 0 n (%)
TRAE: Fatigue (3/4 schedule (n = 95), grade 3): 2 (2.1) n (%)
TRAE: Nausea (3/4 schedule (n = 95), grade 3): 0 n (%)
TRAE: Neutrophil count decreased/neutropenia (3/4 schedule (n = 95), grade 3): 10 (10.5) n (%)
TRAE: Platelet count decreased/thrombocytopenia (3/4 schedule (n = 95), grade 3): 6 (6.3) n (%)
TRAE: Vomiting (3/4 schedule (n = 95), grade 3): 0 n (%)
TRAE: White blood cell count decreased (3/4 schedule (n = 95), grade 3): 4 (4.2) n (%)
Any TRAE (3/4 schedule (n = 95), grade 4): 4 (4.2) n (%)
TRAE: Anemia (3/4 schedule (n = 95), grade 4): 0 n (%)
TRAE: Decreased appetite (3/4 schedule (n = 95), grade 4): 0 n (%)
TRAE: Diarrhea (3/4 schedule (n = 95), grade 4): 0 n (%)
TRAE: Dysgeusia (3/4 schedule (n = 95), grade 4): 0 n (%)
TRAE: Dyspnea (3/4 schedule (n = 95), grade 4): 0 n (%)
TRAE: Fatigue (3/4 schedule (n = 95), grade 4): 0 n (%)
TRAE: Nausea (3/4 schedule (n = 95), grade 4): 0 n (%)
TRAE: Neutrophil count decreased/neutropenia (3/4 schedule (n = 95), grade 4): 3 (3.2) n (%)
TRAE: Platelet count decreased/thrombocytopenia (3/4 schedule (n = 95), grade 4): 1 (1.1) n (%)
TRAE: Vomiting (3/4 schedule (n = 95), grade 4): 0 n (%)
TRAE: White blood cell count decreased (3/4 schedule (n = 95), grade 4): 0 n (%)
Nausea TRAE, overall (3/4 schedule (n = 95), all grade <3): 24.2%
Anemia, all grades (5/2 schedule): 80%
Anemia, grade 3 (5/2 schedule): 52%
Any TRAE [2]: 22 (88.0) n (%)
TRAE: Anemia [2]: 20 (80.0) n (%)
TRAE: Decreased appetite [2]: 4 (16.0) n (%)
TRAE: Diarrhea [2]: 0 n (%)
TRAE: Dysgeusia [2]: 1 (4.0) n (%)
TRAE: Dyspnea [2]: 5 (20.0) n (%)
TRAE: Fatigue [2]: 7 (28.0) n (%)
TRAE: Nausea [2]: 3 (12.0) n (%)
TRAE: Neutrophil count decreased/neutropenia [2]: 6 (24.0) n (%)
TRAE: Platelet count decreased/thrombocytopenia [2]: 7 (28.0) n (%)
TRAE: Vomiting [2]: 3 (12.0) n (%)
TRAE: White blood cell count decreased [2]: 1 (4.0) n (%)
Any TRAE (5/2 schedule (n = 25), grade 3): 14 (56.0) n (%)
TRAE: Anemia (5/2 schedule (n = 25), grade 3): 13 (52.0) n (%)
TRAE: Decreased appetite (5/2 schedule (n = 25), grade 3): 0 n (%)
TRAE: Diarrhea (5/2 schedule (n = 25), grade 3): 0 n (%)
TRAE: Dysgeusia (5/2 schedule (n = 25), grade 3): 0 n (%)
TRAE: Dyspnea (5/2 schedule (n = 25), grade 3): 0 n (%)
TRAE: Fatigue (5/2 schedule (n = 25), grade 3): 1 (4.0) n (%)
TRAE: Nausea (5/2 schedule (n = 25), grade 3): 0 n (%)
TRAE: Neutrophil count decreased/neutropenia (5/2 schedule (n = 25), grade 3): 3 (12.0) n (%)
TRAE: Platelet count decreased/thrombocytopenia (5/2 schedule (n = 25), grade 3): 2 (8.0) n (%)
TRAE: Vomiting (5/2 schedule (n = 25), grade 3): 0 n (%)
TRAE: White blood cell count decreased (5/2 schedule (n = 25), grade 3): 0 n (%)
Any TRAE (5/2 schedule (n = 25), grade 4): 1 (4.0) n (%)
TRAE: Anemia (5/2 schedule (n = 25), grade 4): 0 n (%)
TRAE: Decreased appetite (5/2 schedule (n = 25), grade 4): 0 n (%)
TRAE: Diarrhea (5/2 schedule (n = 25), grade 4): 0 n (%)
TRAE: Dysgeusia (5/2 schedule (n = 25), grade 4): 0 n (%)
TRAE: Dyspnea (5/2 schedule (n = 25), grade 4): 0 n (%)
TRAE: Fatigue (5/2 schedule (n = 25), grade 4): 0 n (%)
TRAE: Nausea (5/2 schedule (n = 25), grade 4): 0 n (%)
TRAE: Neutrophil count decreased/neutropenia (5/2 schedule (n = 25), grade 4): 1 (4.0) n (%)
TRAE: Platelet count decreased/thrombocytopenia (5/2 schedule (n = 25), grade 4): 1 (4.0) n (%)
TRAE: Vomiting (5/2 schedule (n = 25), grade 4): 0 n (%)
TRAE: White blood cell count decreased (5/2 schedule (n = 25), grade 4): 0 n (%)
Tolerability (120 patients): well tolerated
Anemia TRAE of any grade (all dose levels/schedules): 67.5%
Anemia, grade 3 (most common drug-related toxicity) (all patients): 32%
Anemia, grade 4 (both schedules): no grade 4 anemia was observed
